In publication PMC8951016, “Computational Design and Biological Evaluation of Analogs of Lupin Peptide P5 Endowed with Dual PCSK9/HMG-CoAR Inhibiting Activity” (Pharmaceutics, 2022):

How the values were obtained:
LDL uptake, HepG2 cells [1] = assay: Fluorescent LDL uptake in HepG2 cells in the presence of PCSK9; assay type: cell-based, human; details: 50 µM + PCSK9 4 µg/mL; Figure 3C
Protocol: (§1) HepG2 cells (3 × 10^4/well) were seeded in 96-well plates and kept in complete growth medium for 2 days before treatment. The third day, cells were washed with PBS and then starved overnight (O/N) in DMEM without FBS and antibiotics. After starvation, they were treated with 4.0 μg/mL PCSK9 and 4.0 μg/mL PCSK9 + P5 and P5 analogs peptides (50 µM), and vehicle (H2O) for 2 h with at 37 °C under 5% CO2 atmosphere. Fluorescent LDL-uptake was finally assessed following optimized protocol. See Supplementary Materials for further details.
(§2) PBS for 1.5 h at RT. LDLR primary antibody solution (1:3000 in 5% BSA in PBS, 25 µL/well) was incubated O/N at +4 °C. […] The reaction was stopped with 2 M H2SO4 and then the absorbance at 450 nm was measured using the microplate reader Synergy H1 (Winoo-ski, VT, USA). After the read, cells were stained by adding 1 X Janus Green stain, incubat-ing for 5 min at RT. […]
(§3) Afterward 100 µL 0.5 M HCl for well were added and incubated for 10 min. After 10 sec-onds shaking, the OD at 595 nm was measured using the microplate reader Synergy H1 […]
(§4) Fluorescent LDL Uptake. […] The degree of LDL uptake was measured using the Synergy H1 fluo-rescent plate reader (Winooski, VT, USA) (excitation and emission wavelengths 540 and 570 nm, respectively). Fluorescent LDL-uptake was finally assessed following optimized […]

LDLR = assay: Western blot, LDLR protein level in HepG2; assay type: cell-based, human; details: 50 µM, 24 h
Protocol: A total of 1.5 × 10^5 HepG2 cells/well (24-well plate) were treated with 50 μM of P5 and P5 analogs for 24 h. Immunoblotting experiments were performed using optimized protocol. See Supplementary Materials for further details.
as §2, with “°C. Subsequently, the primary antibody solution was discarded and each sample was washed 5 times with 100 µL/well of PBS (each wash was for 5 min at RT). Goat anti-rabbit Ig-HRP secondary antibody solution (Santa Cruz) (1:6000 in 5% BSA in PBS, 50 µL/well), was added and incubated 1 h at RT.” for “°C.”
as §3, §4

LDL uptake, HepG2 cells [2] = assay: Fluorescent LDL uptake in HepG2 cells (peptide alone); assay type: cell-based, human; details: 50 µM, vs control, average ± SD, four independent experiments in duplicate
Protocol: as §1, §2, §3, §4

PCSK9 = test system: PCSK9; design: method as in 3 sources, ref 49 = [49]; PMID 35011066; doi:10.3390/nu14010193; 49. Macchi C. Greco M.F. Ferri N. Magni P. Arnoldi A. Corsini A. Sirtori C.R. Ruscica M. Lammi C. Impact of Soy β-Conglycinin Peptides on PCSK9 Protein Expression in HepG2 Cells Nutrients 2021 14 193 ||| ref 22 = [22]; doi:10.1016/j.jff.2017.02.009; 22. Zanoni C. Aiello G. Arnoldi A. Lammi C. Investigations on the hypocholesterolaemic activity of […] and LTFPGSAED, two peptides from lupin β-conglutin: Focus on LDLR and PCSK9 pathways J. Fu ||| ref 24 = [24]; PMID 33808034; doi:10.3390/nu13030863; 24. Lammi C. Aiello G. Bollati C. Li J. Bartolomei M. Ranaldi G. Ferruzza S. Fassi E.M.A. Grazioso G. Sambuy Y. Trans-Epithelial Transport, Metabolism, and Biological Activity Assessment of the Multi-; details: through downregulation of HNF-1α; cited from earlier work
LDL uptake, HepG2 cells [3] = details: cited from earlier work
Excerpt: In fact, in our previous paper, by applying a computational approach such as the one here applied, we designed and biologically evaluated two poly-imidazole derivatives endowed with PCSK9 inhibiting activity.

## LILPKHSDAD [Peptide P5, natural peptide derived from a peptic lupin protein hydrolysate]
LDL uptake, HepG2 cells [1]
  ability to absorb LDL in presence of PCSK9: improved
LDLR
  LDLR protein level (words, P5): augmentation of the LDLR protein levels
LDL uptake, HepG2 cells [2]
  ability of HepG2 cells to uptake extracellular LDL: 203.8 ± 40.67%
PCSK9
  PCSK9 protein levels and secretion (P5, earlier work, words): reduces the PCSK9 protein levels and its secretion
LDL uptake, HepG2 cells [3]
  uptake of extracellular LDL by HepG2 (P5, earlier work, words): improved ability of HepG2 cells to uptake extracellular LDL
